From ChEMBL document CHEMBL1201862, “PubChem BioAssay data set” (2004)
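Five compound concentrations were applied to cells in 96-well plates for 48 hours; endpoints were derived by simple linear interpolation of the resulting dose-response curve. GI50 marks 50% less growth.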 Calls of active or inactive are those of the source. Cut-off read from the data, not from the text of the source: active = GI50 up to about 1.1 µM and inactive = higher.

What was measured:
Assay in all cases: growth of human tumour cells (NCI), 48 h
OVCAR-8 = system: OVCAR-8
KM-20L2 = system: KM-20L2
HL-60 = system: HL-60
UO-31 = system: UO-31
RXF 393 = system: RXF 393
MOLT-4 = system: MOLT-4
IGROV-1 = system: IGROV-1
SR = system: SR
UACC-257 = system: UACC-257
NCI-H226 = system: NCI-H226
SF-539 = system: SF-539
SN12C = system: SN12C
KM12 = system: KM12
786-0 = system: 786-0
NCI-H460 = system: NCI-H460
EKVX = system: EKVX
MDA-MB-231 = system: MDA-MB-231
MDA-N = system: MDA-N
T47D = system: T47D
MCF7 = system: MCF7

Measured: GI50

COc1cc(/C=C2\NC(=S)C3Cc4c(OC)c(C)c(OC)c(OC)c4C2N3C)c(OC)c(C)c1OC (stereo unspecified)
inactive: OVCAR-8 32.5 µM | KM-20L2 64 µM | HL-60 25.2 µM | UO-31 21.2 µM | RXF 393 24.7 µM | MOLT-4 21.2 µM | IGROV-1 > 100 µM | SR 10.4 µM | UACC-257 22.2 µM | NCI-H226 22.6 µM | SF-539 > 100 µM | SN12C > 100 µM | KM12 92.9 µM | 786-0 73.1 µM | NCI-H460 14.9 µM | EKVX 36.8 µM

O=C(O)CCCc1ccc(N(CCCl)CCCl)cc1 [CHLORAMBUCIL]
inactive: OVCAR-8 83.2 µM | KM-20L2 132 µM | HL-60 8.22 µM | UO-31 70.1 µM | RXF 393 33.2 µM | MOLT-4 5.78 µM | MDA-MB-231 156 µM | IGROV-1 115 µM | SR 5.98 µM | UACC-257 93.5 µM | NCI-H226 95.7 µM | SF-539 22.9 µM | MDA-N 117 µM | SN12C 35.5 µM | T47D 55 µM | KM12 143 µM | MCF7 32.8 µM | 786-0 30.9 µM | NCI-H460 14.7 µM | EKVX 163 µM
